Laboratory results from publication PMC11738990, “A small-molecule TNIK inhibitor targets fibrosis in preclinical and clinical models” (Nature Biotechnology, 2024).
Where “and” joins values, the source holds several entries; their conditions need not be identical. Equal entries are not always repeated. Where two headings read alike, the source gives them in different places.

Assays:
healthy subjects [1] = tested on: healthy subjects
[2] = tested on: primary bronchial epithelial cells from donors with IPF; assay: EMT by FN1, high-content analysis; type: cell-based, human; details: three donors with IPF
Procedure: For the measurement of EMT by FN1, on the first day, human primary bronchial epithelial cells were seeded. After 2 d, the medium of the cells was refreshed. […] After 1 h, all cells were treated with 5 ng ml^−1 TGF-β1.
Percent inhibition = (100 − (μp − Xi)/(μp − Xn)) × 100

healthy subjects [3] = details: in vivo
[4] = tested on: primary lung fibroblasts from donors with IPF; assay: FMT by α-SMA, high-content analysis; type: cell-based, human; details: three donors with IPF; read-out: IC50, TGF-β-mediated α-SMA expression
Procedure: For the measurement of FMT by α-SMA, on the first day, human lung-derived primary lung fibroblast cells were seeded. After 2 d, the medium of the cells was refreshed. […] On the eighth day (72 h after triggering), cells were fixed with 4% formaldehyde, stained for α-SMA and with DAPI and then imaged and quantified via high-content analysis (HCA) (IN Cell Analyzer 2200, GE Healthcare).
Segmentation and quantification of α-SMA and FN1 immunoreactivity was carried out with an HCA algorithm, with density × area (D × A) output. Data normalization of raw α-SMA or FN1 (D × A) to percent inhibition values was performed on a plate-to-plate basis.
[…]
μp is the average α-SMA or FN1 value of the positive control (TGF-β1 + 1 μM SB525334). μn is the average α-SMA or FN1 value of the vehicle control (TGF-β1 + 0.1% DMSO). Xi is the compound α-SMA or FN1 value. IC50 values for all compounds (if calculable, based on the point of inflection) were calculated with GraphPad Prism using non-linear fit of log (inhibitor) versus response (four parameter).
DAPI fluorescence was applied for HCA-based quantification of the number of imaged cells on a plate-to-plate basis.
Percent remaining cells = (Xi/μn) × 100%
μn is the average number of nuclei of the vehicle control (TGF-β1 + 0.1% DMSO). Xi is the compound number of nuclei.

NHDF cells = assay: α-SMA evaluation in NHDF; type: cell-based, human; details: TGF-β 0.1 ng/ml, 72 h; read-out: IC50, α-SMA expression
Procedure: The medium was then replaced with an assay medium containing or lacking (control conditions) the test compound, and TGF-β (0.1 ng ml^−1) was added or not (unstimulated control). […] All experimental conditions were performed in five replicates. For in situ immunolabeling and image analysis, at the end of the incubation, fibroblasts were rinsed, fixed and permeabilized. […] Image acquisition was performed using a high-resolution imaging system, the IN Cell Analyzer 2200 (GE Healthcare) automated microscope (objective lens, ×20). Five pictures per well were taken. Labeling was quantified by measuring the fluorescence intensity of α-SMA signals normalized to the total number of nuclei identified (integration of numerical data was performed with the Developer Toolbox 1.5, GE Healthcare software).

## CC(C)n1cnc(-c2ccc(F)cc2)c1-c1nc(C(=O)Nc2ccc(N3CCN(C)CC3)cc2)c[nH]1 [INS018_055, 2-[4-(4-fluorophenyl)-1-(prop-2-yl)imidazol-5-yl]-N-[4-(4-methylhexahydropyrazin-1-yl)phenyl]-1H-imidazole-4-carboxamide]
Healthy subjects [1]; MAD BID 7 d 30 mg N=6
  Any TEAE: 66.7%
Healthy subjects [1]; MAD BID 7 d 60 mg N=6
  Any TEAE: 100.0%
Healthy subjects [1]; MAD BID 7 d 90 mg N=6
  Any TEAE: 100.0%
Healthy subjects [1]; MAD any dose N=18
  Abdominal distension: 5.6%
  Anaemia: 11.1%
  Any TEAE: 88.9%
  Arthralgia: 5.6%
  Basophil count increased: 5.6%
  Blood and lymphatic system disorders: 11.1%
  Blood bilirubin increased: 5.6%
  Blood creatine phosphokinase increased: 5.6%
  Blood fibrinogen decreased: 11.1%
  Blood pressure decreased: 5.6%
  Blood pressure increased: 5.6%
  Cardiac disorders: 5.6%
  Dizziness: 22.2%
  Electrolyte imbalance: 5.6%
  Epistaxis: 11.1%
  Fecal occult positive: 55.6%
  Gastrointestinal disorders: 22.2%
  Haematuria: 16.7%
  Headache: 16.7%
  Hepatic enzyme increased: 5.6%
  Hyperphosphataemia: 5.6%
  Hypertriglyceridaemia: 50.0%
  Hyponatraemia: 5.6%
  Infections and infestations: 5.6%
  Influenza like illness: 27.8%
  Investigations: 77.8%
  Limb discomfort: 0.0%
  Musculoskeletal and connective tissue disorders: 33.3%
  Nasal obstruction: 5.6%
  Nausea: 5.6%
  Nervous system disorders: 38.9%
  Pain in extremity: 27.8%
  Pruritus: 5.6%
  Pyrexia: 11.1%
  Rash: 16.7%
  Renal and urinary disorders: 16.7%
  Respiratory, thoracic and mediastinal disorders: 16.7%
  Sinus bradycardia: 5.6%
  Skin and subcutaneous tissue disorders: 22.2%
  Total bile acids increased: 5.6%
  Vomiting: 5.6%
  White blood cells urine positive: 11.1%
Healthy subjects [1]; SAD 30 mg N=6
  Any TEAE: 83.3%
Healthy subjects [1]; SAD 60 mg N=6
  Any TEAE: 33.3%
Healthy subjects [1]; SAD 120 mg N=6
  Any TEAE: 50.0%
Healthy subjects [1]; SAD any dose N=18
  Any TEAE: 55.6%
  Blood glucose increased: 0.0%
  Blood uric acid increased: 5.6%
  Body temperature increased: 5.6%
  Cardiac disorders: 11.1%
  Fecal occult positive: 27.8%
  Gastrointestinal disorders: 5.6%
  Headache: 5.6%
  Hypertriglyceridaemia: 27.8%
  Hypotension: 5.6%
  Investigations: 33.3%
  Nervous system disorders: 5.6%
  Sinus bradycardia: 11.1%
  Vascular disorders: 5.6%
  White blood cells urine positive: 0.0%
Healthy subjects [1]; in vivo
  Noninfective gingivitis: 5.6%
  Upper respiratory tract infection: 5.6%
[2]
  IC50: 250 nM and 320 nM and 400 nM
Healthy subjects [3]
  Abdominal pain: 1 (5.6) [1]
  Alanine aminotransferase increased: 1 (5.6) [1]
  Alopecia: 0 [0]
  Any SAE: 0 [0]
  Any Severe TEAE: 0 [0]
  Any Treatment-Related Moderate TEAE: 0 [0]
  Any Treatment-Related SAE: 0 [0]
  Any Treatment-Related Severe TEAE: 0 [0]
  Aphthous ulcer: 1 (5.6) [1]
  Aspartate aminotransferase increased: 1 (5.6) [1]
  Back pain: 1 (5.6) [1]
  Blood creatine phosphokinase increased: 1 (5.6) [1]
  Catheter site bruise: 1 (5.6) [1]
  Catheter site inflammation: 1 (5.6) [1]
  Catheter site pain: 0 [0]
  Catheter site swelling: 1 (5.6) [1]
  Constipation: 1 (3.3) [1]
  Cough: 1 (3.3) [1]
  Diarrhoea: 1 (5.6) [1]
  Gastrointestinal disorder: 0 [0]
  Immune system disorders: 1 (5.6) [1]
  Lymph node palpable: 1 (5.6) [1]
  Medical device site irritation: 2 (6.7) [2]
  Nasal congestion: 1 (5.6) [1]
  Nausea: 1 (5.6) [1]
  Nightmare: 1 (5.6) [1]
  Paraesthesia: 0 [0]
  Phlebitis: 3 (10.0) [3]
  Pruritus: 1 (5.6) [1]
  Psychiatric disorders: 1 (5.6) [1]
  Rhinorrhoea: 0 [0]
  Seasonal allergy: 1 (5.6) [1]
  Skin mass: 1 (5.6) [1]
  Syncope: 1 (3.3) [1]
  Urticaria: 0 [0]
  Vascular disorders: 3 (10.0) [3]
[4]
  IC50: 50 nM and 79 nM and 63 nM
NHDF cells
  IC50: 25 nM
